# Laboratory results from paper PMC11345769, “(SiFA)SeFe: A Hydrophilic Silicon-Based Fluoride Acceptor Enabling Versatile Peptidic Radiohybrid Tracers” (Journal of medicinal chemistry, 2024).
# Assays:
# [1] = stability of 18F-labeled model bioconjugates, physiological conditions; type: physicochemical; conditions: buffer, pH 7.4
# Procedure: (§1) To a solution of 90 μL aqueous K2CO3 buffer (pH 7.4) were added 10 μL of the respective ^18F-labeled (SiFA)SeFe-bioconjugate. The solution was kept at 37 °C and for each time point (0, 30, 60, 90, 120 min) 10 μL were analyzed via Radio-TLC. The half-life was calculated from the ratio between free fluorine-18 and labeled peptide.
# [2] = stability of 18F-labeled model bioconjugates, lutetium labeling conditions; type: physicochemical; conditions: buffer, pH 5.5
# Procedure: as §1, with “of 10” for “of 90”, “aqueous sodium acetate” for “aqueous K2CO3”, “(pH 5.5) and 80 μL 0.04 M HCl” for “(pH 7.4)”, “at 90” for “at 37”
# [3] = stability of 18F-labeled model bioconjugates, reverse isotopic exchange; type: physicochemical; conditions: buffer, pH 6.5
# Procedure: To 10 μL of the respective ^18F-labeled (SiFA)SeFe-bioconjugate, a solution of 10 μL 10 mM NaF (pH = 6.5) and 80 μL H2O was added. The solution was kept at RT and for each time point (0, 30, 60, 90, 120 min) 10 μL was analyzed via Radio-TLC. The half-life was calculated from the ratio between free fluorine-18 and labeled peptide.
# human serum albumin = target: T1, human serum albumin (Homo sapiens, UniProt P02768); test: human serum albumin binding by HPAC; type: in vitro ADME; conditions: non-radiolabeled compounds, n=1
# T1 construct: purchased Daicel, Tokio, Japan Chiralpak HSA column (50 × 3 mm, 5 μm, H13 h-2433)
# T1 sequence (P02768 25-609): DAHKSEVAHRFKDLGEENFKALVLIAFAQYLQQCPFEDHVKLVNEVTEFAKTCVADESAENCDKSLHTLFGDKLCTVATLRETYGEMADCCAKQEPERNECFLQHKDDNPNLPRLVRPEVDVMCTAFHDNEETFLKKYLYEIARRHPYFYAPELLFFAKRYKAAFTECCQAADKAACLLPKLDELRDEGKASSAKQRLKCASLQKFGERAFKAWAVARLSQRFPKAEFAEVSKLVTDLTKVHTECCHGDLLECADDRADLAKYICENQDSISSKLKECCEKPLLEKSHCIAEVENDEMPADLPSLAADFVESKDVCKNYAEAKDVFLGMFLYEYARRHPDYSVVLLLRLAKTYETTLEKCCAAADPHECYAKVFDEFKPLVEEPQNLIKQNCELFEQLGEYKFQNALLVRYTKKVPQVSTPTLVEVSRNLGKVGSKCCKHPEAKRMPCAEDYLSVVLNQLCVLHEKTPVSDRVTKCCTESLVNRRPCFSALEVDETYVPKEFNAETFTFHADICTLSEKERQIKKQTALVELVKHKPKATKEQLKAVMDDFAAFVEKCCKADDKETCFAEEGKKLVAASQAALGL
# Procedure: High performance affinity chromatography (HPAC) was used to determine representative values for HSA binding of the ligands and their references, since it can influence the distribution and pharmacokinetics of radiopharmaceuticals.[43],[44]
# HSA binding studies were performed according to a previously published procedure, using RP-HPLC and HSA which is solid-phase fixed on a Chiralpak HSA column (50 × 3 mm, 5 μm, H13 h-2433, Daicel, Tokio, Japan).[51] A flow rate of 0.5 mL/min at RT was used. A freshly prepared 50 mM aqueous solution of NH4OAc (pH 6.9) was used as mobile phase A, and isopropanol (HPLC grade, VWR, Germany) was used as mobile phase B. A gradient of 100% A (0 to 3 min) followed by 80% A (3 to 40 min) was used for the experiments. Before the analysis of all compounds, the column was calibrated with nine reference substances having HSA binding known from the literature in the range of 13 to 99%.[51],[52] All compounds, were prepared in a 1/1 mixture (v/v) of isopropanol and a 50 mM aqueous solution of NH4OAc (pH 6.9) at a final concentration of 0.5 mg/mL. Nonlinear regression was performed using OriginPro 2016G software (North-ampton, United States).
# [4] = stability in human serum (radio-RP-HPLC); type: in vitro ADME; conditions: 37 °C; for Intact tracer in human serum, 24 h: n=3; for remaining at 24 h, 25 MBq/mL: human, serum, n=3, read-out: Intact tracer in human serum, 24 h
# Procedure: Stability studies in human serum were also performed by incubating the ^18F-labeled ligands [^18F][^natGa]Ga-(SiFA)-SeFe-rhTATE1, [^18F][^natGa]Ga-(SiFA)SeFe-rhTATE2, [^18F][^natLu]Lu-(SiFA)SeFe-rhTATE3 and [^18F][^natLu]Lu-(SiFA)BA-rhTATE3 (for 1 h), as well as the ^177Lu-labeled ligands [^177Lu]Lu-(SiFA)SeFe-rhTATE3 and [^177Lu]Lu-(SiFA)BA-rhTATE3 for 1 and 24 h at 37 °C (Figure 3D). Afterward, the samples were analyzed for the intact tracer by radio-RP-HPLC (see SI, Table S4).
# 5 MBq of the respective ^18F-/^177Lu-labeled compound was added to 200 μL of human serum (from a healthy volunteer) and incubated at 37 °C for 1 h. After the addition of 50 vol % of cold ethanol and 150 vol % of cold MeCN, centrifugation was performed at 13.000 rpm for 20 min. The supernatant was decanted and centrifuged at 13.000 rpm for 10 min in a centrifuge tube with a 0.45 μm cellulose acetate filter. […] of the remaining filtrate was injected into RP-HPLC and the number of intact radioligand was quantified.
# [5] = physiological conditions, 18F-labeled, Radio-TLC, read-out: Half-life, pH 7.4, 37 °C
# [6] = lutetium labeling conditions, 18F-labeled, Radio-TLC, read-out: Half-life, pH 5.5, 90 °C (converted)
# [7] = reverse isotopic exchange, 18F-labeled, Radio-TLC, read-out: Half-life, pH 6.5, 1 mM aq. NaF, RT
smiles,measurement,setting,value
"CC(C)(C)[Si](F)(c1cc(CN)cc(C(=O)NCC(=O)N[C@@H](CCCCN)C(=O)O)c1)C(C)(C)C [1X1, (3-(aminomethyl)-5-(di-tert-butylfluorosilyl)benzoyl)glycyl-L-lysine]",half-life,[1],27 ± 2.1 min
same,half-life,[2],38 ± 0.9 h
same,half-life,[3],10 ± 1.1 min
"CC(C)(C)[Si](F)(c1cc(CN)cc(C(=O)NCC(=O)N[C@@H](CC(=O)O)C(=O)O)c1)C(C)(C)C [1X2, (3-(aminomethyl)-5-(di-tert-butylfluorosilyl)benzoyl)glycyl-L-as-partic acid]",half-life,[1],299 ± 12 min
same,half-life,[2],37 ± 11 h
same,half-life,[3],25 ± 6.1 min
"CC(C)(C)[Si](F)(c1cc(CN)cc(C(=O)NCC(=O)N[C@@H](Cc2ccc(O)cc2)C(=O)O)c1)C(C)(C)C [1X3, (3-(aminomethyl)-5-(di-tert-butylfluorosilyl)benzoyl)glycyl-L-tyrosine]",half-life,[1],14 ± 3 min
same,half-life,[2],43 ± 2.8 h
same,half-life,[3],27 ± 2.2 min
"CC(C)(C)[Si](F)(c1cc(CNC(=O)[C@@H](N)CCCCN)cc(C(=O)NCC(=O)N[C@@H](CCCCN)C(=O)O)c1)C(C)(C)C [2X1, (3-(di-tert-butylfluorosilyl)-5-(((S)-2,6-diaminohexanamido)-methyl)benzoyl)glycyl-L-lysine]",half-life,[1]; [5],18 ± 2.1 min
same,half-life,[2]; [6],25 ± 5.5 h
same,half-life,[3]; [7],14 ± 0.8 min
"CC(C)(C)[Si](F)(c1cc(CNC(=O)[C@@H](N)CCCCN)cc(C(=O)NCC(=O)N[C@@H](CC(=O)O)C(=O)O)c1)C(C)(C)C [2X2, (3-(di-tert-butylfluorosilyl)-5-(((S)-2,6-diaminohexanamido)-methyl)benzoyl)glycyl-L-aspartic acid]",half-life,[1]; [5],43 ± 1.3 min
same,half-life,[2]; [6],49 ± 7.1 h
same,half-life,[3]; [7],29 ± 0.8 min
"CC(C)(C)[Si](F)(c1cc(CNC(=O)[C@@H](N)CCCCN)cc(C(=O)NCC(=O)N[C@@H](Cc2ccc(O)cc2)C(=O)O)c1)C(C)(C)C [2X3, (3-(di-tert-butylfluorosilyl)-5-(((S)-2,6-diaminohexanamido)-methyl)benzoyl)glycyl-L-tyrosine]",half-life,[1]; [5],21 ± 6 min
same,half-life,[2]; [6],48 ± 13 h
same,half-life,[3]; [7],20 ± 2.9 min
"CC(C)(C)[Si](F)(c1cc(CNC(=O)[C@@H](N)CCC(=O)O)cc(C(=O)NCC(=O)N[C@@H](CCCCN)C(=O)O)c1)C(C)(C)C [3X1, (3-(((S)-2-amino-4-carboxybutanamido)methyl)-5-(di-tert-butylfluorosilyl)benzoyl)glycyl-L-lysine]",half-life,[1]; [5],57 ± 1.3 min
same,half-life,[2]; [6],40 ± 0.6 h
same,half-life,[3]; [7],34 ± 2.1 min
"CC(C)(C)[Si](F)(c1cc(CNC(=O)[C@@H](N)CCC(=O)O)cc(C(=O)NCC(=O)N[C@@H](CC(=O)O)C(=O)O)c1)C(C)(C)C [3X2, (3-(((S)-2-amino-4-carboxybutanamido)methyl)-5-(di-tert-butylfluorosilyl)benzoyl)glycyl-L-aspartic acid]",half-life,[1]; [5],597 ± 43 min
same,half-life,[2]; [6],59 ± 5.2 h
same,half-life,[3]; [7],90 ± 3.6 min
"CC(C)(C)[Si](F)(c1cc(CNC(=O)[C@@H](N)CCC(=O)O)cc(C(=O)NCC(=O)N[C@@H](Cc2ccc(O)cc2)C(=O)O)c1)C(C)(C)C [3X3, (S)-4-amino-5-((3-((2-(((S)-1-carboxy-2-(4-hydroxyphenyl)-ethyl)amino)-2-oxoethyl)carbamoyl)-5-(di-tert-butylfluorosilyl)-benzyl)amino)-5-oxopentanoic acid]",half-life,[1]; [5],29 ± 0.8 min
same,half-life,[2]; [6],42 ± 7.8 h
same,half-life,[3]; [7],57 ± 1.6 min
"CC(=O)N[C@@H]1[C@@H](O)[C@H](O)[C@@H](CO)O[C@H]1NC(=O)C[C@H](NC(=O)CON=CCCC[N+](C)(C)Cc1ccc([Si](F)(C(C)(C)C)C(C)(C)C)cc1)C(=O)N[C@@H](CC(=O)O)C(=O)N[C@@H](CC(=O)O)C(=O)NCCOCCOCC(=O)N[C@H](Cc1ccccc1)C(=O)N[C@H]1CSSC[C@@H](C(=O)N[C@H](C(=O)O)[C@@H](C)O)NC(=O)[C@H]([C@@H](C)O)NC(=O)[C@H](CCCCN)NC(=O)[C@@H](Cc2c[nH]c3ccccc23)NC(=O)[C@H](Cc2ccc(O)cc2)NC1=O [SiFAlin-TATE, reference compound]",HSA binding (HPAC),human serum albumin,92%
"C[C@@H](O)[C@H](NC(=O)[C@@H]1CSSC[C@H](NC(=O)[C@@H](Cc2ccccc2)NC(=O)COCCOCCNC(=O)[C@@H](CNC(=O)CN2CCN(CC(=O)O)CCN(CC(=O)O)CCN(CC(=O)O)CC2)NC(=O)COCCOCCNC(=O)c2ccc([Si](F)(C(C)(C)C)C(C)(C)C)cc2)C(=O)N[C@@H](Cc2ccc(O)cc2)C(=O)N[C@H](Cc2c[nH]c3ccccc23)C(=O)N[C@@H](CCCCN)C(=O)N[C@@H]([C@@H](C)O)C(=O)N1)C(=O)O [[177Lu]Lu-(SiFA)BA-rhTATE3, metal not drawn]","Intact tracer in human serum, 24 h",[4],60 ± 1.0%
same,"remaining at 24 h, 25 MBq/mL",[4],60%
"C[C@@H](O)[C@H](NC(=O)[C@@H]1CSSC[C@H](NC(=O)[C@@H](Cc2ccccc2)NC(=O)COCCOCCNC(=O)[C@@H](CNC(=O)CN2CCN(CC(=O)O)CCN(CC(=O)O)CCN(CC(=O)O)CC2)NC(=O)COCCOCCNC(=O)c2cc(CN)cc([Si](F)(C(C)(C)C)C(C)(C)C)c2)C(=O)N[C@@H](Cc2ccc(O)cc2)C(=O)N[C@H](Cc2c[nH]c3ccccc23)C(=O)N[C@@H](CCCCN)C(=O)N[C@@H]([C@@H](C)O)C(=O)N1)C(=O)O [[177Lu]Lu-(SiFA)SeFe-rhTATE3, metal not drawn]","Intact tracer in human serum, 24 h",[4],94 ± 3.0%
same,"remaining at 24 h, 25 MBq/mL",[4],94%
"C[C@@H](O)[C@H](NC(=O)[C@@H]1CSSC[C@H](NC(=O)[C@@H](Cc2ccccc2)NC(=O)CN2CCN(CC(=O)O)CCN(CC(=O)NC[C@@H](NC(=O)c3cc(CN)cc([Si](F)(C(C)(C)C)C(C)(C)C)c3)C(=O)O)CCN(CC(=O)O)CC2)C(=O)N[C@@H](Cc2ccc(O)cc2)C(=O)N[C@H](Cc2c[nH]c3ccccc23)C(=O)N[C@@H](CCCCN)C(=O)N[C@@H]([C@@H](C)O)C(=O)N1)C(=O)O [[natGa]Ga-(SiFA)SeFe-rhTATE1, metal not drawn]",HSA binding (HPAC),human serum albumin,99%
same,HSA binding (HPAC),human serum albumin; listed as [^natGa]Ga-(SiFA)SeFe-rhTATE1,98−99%
"C[C@@H](O)[C@H](NC(=O)[C@@H]1CSSC[C@H](NC(=O)[C@@H](Cc2ccccc2)NC(=O)CN2CCN(CC(=O)O)CCN(CC(=O)NC[C@@H](NC(=O)c3cc(CNC(=O)C[C@@H](N)C(=O)O)cc([Si](F)(C(C)(C)C)C(C)(C)C)c3)C(=O)O)CCN(CC(=O)O)CC2)C(=O)N[C@@H](Cc2ccc(O)cc2)C(=O)N[C@H](Cc2c[nH]c3ccccc23)C(=O)N[C@@H](CCCCN)C(=O)N[C@@H]([C@@H](C)O)C(=O)N1)C(=O)O [[natGa]Ga-(SiFA)SeFe-rhTATE2, metal not drawn]",HSA binding (HPAC),human serum albumin,99%
same,HSA binding (HPAC),human serum albumin; listed as [^natGa]Ga-(SiFA)SeFe-rhTATE2,98−99%
"C[C@@H](O)[C@H](NC(=O)[C@@H]1CSSC[C@H](NC(=O)[C@@H](Cc2ccccc2)NC(=O)COCCOCCNC(=O)[C@@H](CNC(=O)CN2CCN(CC(=O)O)CCN(CC(=O)O)CCN(CC(=O)O)CC2)NC(=O)COCCOCCNC(=O)c2cc(CN)cc([Si](F)(C(C)(C)C)C(C)(C)C)c2)C(=O)N[C@@H](Cc2ccc(O)cc2)C(=O)N[C@H](Cc2c[nH]c3ccccc23)C(=O)N[C@@H](CCCCN)C(=O)N[C@@H]([C@@H](C)O)C(=O)N1)C(=O)O [[natLu]Lu-(SiFA)SeFe-rhTATE3, metal not drawn]",HSA binding (HPAC),human serum albumin,98%
same,HSA binding (HPAC),human serum albumin; listed as [^natLu]Lu-(SiFA)SeFe-rhTATE3,98−99%
